Reference: US20250171459A1, “2-METHYL-4',5'-DIHYDROSPIRO[PIPERIDINE-4,7'-THIENO[2,3-C]PYRAN] DERIVATIVES AS INHIBITORS OF APOL1 AND METHODS OF USING SAME” (Vertex Pharmaceuticals Incorporated, priority 2022, published 2025)

Molecular target: T1, APOL1 (Homo sapiens, UniProt O14791)
T1 sequence (O14791 1-398 S342G/I384M): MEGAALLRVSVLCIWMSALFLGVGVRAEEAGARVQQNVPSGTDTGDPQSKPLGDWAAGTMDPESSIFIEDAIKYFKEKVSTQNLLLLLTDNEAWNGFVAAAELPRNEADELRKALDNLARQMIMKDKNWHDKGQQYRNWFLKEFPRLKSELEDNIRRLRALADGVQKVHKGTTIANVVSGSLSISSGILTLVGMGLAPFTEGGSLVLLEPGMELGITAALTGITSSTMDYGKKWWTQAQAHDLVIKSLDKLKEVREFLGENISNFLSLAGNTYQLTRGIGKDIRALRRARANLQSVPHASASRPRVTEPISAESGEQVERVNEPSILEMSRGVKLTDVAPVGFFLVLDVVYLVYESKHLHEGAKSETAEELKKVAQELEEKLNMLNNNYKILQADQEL
Experiment: MultiTox-Fluor Multiplex Cytotoxicity Assay in tet-inducible APOL1 T-REx-HEK293 cells (cell rescue, ratio of dead to live cells)
Type: cell-based
Details: tet-inducible transgenic APOL1 T-REx-HEK293 cell lines, 50 ng/mL tet, 24 hours; read-out: IP50 (i.e., IC50 for cell proliferation)
From the text: The MultiTox-Fluor Multiplex Cytotoxicity Assay is a single-reagent-addition, homogeneous, fluorescence assay that measures the number of live and dead cells simultaneously in culture wells. The assay measures cell viability and cytotoxicity by detecting two distinct protease activities. […] The substrate enters intact cells, where it is cleaved to generate a fluorescent signal proportional to the number of living cells. […] A ratio of dead to live cells is used to normalize data.
The MultiTox reagent was added to each well and placed back in the incubator for an additional 30 minutes. The plate was read on the EnVision plate reader. A ratio of dead to live cells was used to normalize, and data was imported, analyzed, and fit using Genedata Screener (Basel, Switzerland) software. Data was normalized using percent of control, no tet (100% viability), and 50 ng/mL tet treated (0% viability), and fit using Smart Fit. The reagents, methods, and complete protocol for the MultiTox assay are described below.
Cells were washed with DPBS and then trypsinized to dissociate from the flask. Media was used to quench the trypsin, cells were then pelleted at 200 g and resuspended in fresh cell assay media (DMEM, 2% Tet-free FBS, 2 mM L-glutamine, 100 Units/mL penicillin-streptomycin). […] The plates were then incubated at room temperature for one hour.
Tetracycline is needed to induce APOL1 expression. 1 mg/mL tet stock in water was diluted to 250 ng/mL (5×) in cell assay media.
Compounds were dispensed at 200 nL in DMSO. The final top concentration was 10 μM with a 10 point 3-fold dilution in duplicate in the MultiTox assay.
20 μL was transferred from the 5× tet plate to the ARP and mixed, then 5 μL of 5× tet and the compounds were transferred to the cell plate and mixed using the Bravo. The cell plate was placed in the humidified 37° C. 5% CO2 incubator for 24 hours.
The MultiTox-Fluor Multiplex Cytotoxicity Assay was performed in accordance with the manufacturer's protocol. After cells were incubated with tet and compound for 24 hours, 25 μL of 1× MultiTox reagent was added to each well using the Multidrop dispenser; the plates were placed on a plate shaker (600 rpm) for 2 minutes, then centrifuged briefly and placed back in the 37° C. incubator for 30 minutes. The cell viability (excitation: 400 nm, emission: 486 nm) and cytotoxicity (excitation: 485 nm, emission: 535 nm) were read using the EnVision plate reader. A ratio of dead (cytotoxicity) to live (viability) cells was reported. Data was exported and analyzed in Genedata. Data was normalized using percent of control, no tet (100% viability), and 50 ng/mL tet treated (0% viability), and fit using Smart Fit settings in Genedata.

Row | SMILES | IC50 [nM]
1 | C[C@H]1C[C@@]2(CCN1C1CCCC1O)OCCc1cc(C(F)(F)F)sc12 (stereo partly drawn) [Compound 864, 2-[(2′S,7R)-2′-methyl-2-(trifluoromethyl)spiro[4,5-dihydrothieno[2,3-c]pyran-7,4′-piperidine]-1′-yl]cyclopentanol] | 100 to 500
2 | CCc1cc2c(s1)CCOC21CCN(Cc2cn(C3CC3)nn2)CC1 [Compound 1112] | 500 to 1000
3 | CCc1cc2c(s1)CCO[C@@]21CCN(CC(O)C(F)(F)F)[C@@H](C)C1 (stereo partly shown) [Compound 243] | 100 to 500
4 | CCc1cc2c(s1)CCO[C@@]21CCN(CC2CN(C(=O)Cn3cncn3)C2)[C@@H](C)C1 [Compound 483] | 100 to 500
5 | CCc1cc2c(s1)CCOC21CCN(Cc2cn(CCS(N)(=O)=O)nn2)CC1 [Compound 1080] | 100 to 500
6 | C[C@H]1C[C@@]2(CCN1Cc1cccnc1)OCCc1c2sc(Cl)c1CO [Compound 757] | < 100
7 | C[C@H]1C[C@@]2(CCN1Cc1ncco1)OCCc1cc(CC(F)F)sc12 [Compound 580] | 100 to 500
8 | CCc1cc2c(s1)CCOC21CCN(Cc2cn(CC(C)(CO)COC)nn2)C(C)C1 (stereo not shown) [Compound 101] | 100 to 500
9 | C[C@H]1C[C@]2(CCN1Cc1cn(CCS(C)(=O)=O)nn1)OCCc1cc(Cl)sc12 [Compound 695, (2′S,7S)-2-chloro-2′-methyl-1′-[[1-(2-methylsulfonylethyl)triazol-4-yl]methyl]spiro[4,5-dihydrothieno[2,3-c]pyran-7,4′-piperidine]] | 500 to 1000
10 | C[C@H]1C[C@@]2(CCN1CC1CCN(S(C)(=O)=O)CC1)OC[C@H](O)c1cc(Cl)sc12 [Compound 796] | 100 to 500
11 | C[C@H]1C[C@@]2(CCN1Cc1cccc(Cl)c1O)OC[C@H](O)c1cc(Cl)sc12 [Compound 766, (2′S,4R,7R)-2-chloro-1′-[(3-chloro-2-hydroxy-phenyl)methyl]-2′-methyl-spiro[4,5-dihydrothieno[2,3-c]pyran-7,4′-piperidine]-4-ol] | 500 to 1000
12 | CCc1cc2c(s1)CCO[C@@]21CCN(C[C@H]2C[C@@H](NC(=O)OCC(C)C)C2)[C@@H](C)C1 [Compound 373] | 100 to 500
13 | CCc1cc2c(s1)CCO[C@@]21CCN(CC2CN(C(=O)c3ncc(C)[nH]3)C2)[C@@H](C)C1 [Compound 470] | < 100
14 | CC(C)Cc1cc2c(s1)CCO[C@@]21CCN(Cc2cnn(C)c2)[C@@H](C)C1 [Compound 521] | < 100
15 | CCc1cc2c(s1)CCO[C@@]21CCN(CC2CN(C(=O)CCCc3c[nH]nn3)C2)[C@@H](C)C1 [Compound 471] | < 100
16 | COc1ccc(CN2CC[C@]3(C[C@@H]2C)OCCc2c3sc(Cl)c2CO)cc1OCC(N)=O [Compound 744] | < 100
17 | CCc1cc2c(s1)CCO[C@@]21CCN(Cc2cnc(NC(C)(CC)CO)nc2)[C@@H](C)C1 (stereo partly shown) [Compound 224] | < 100
18 | C[C@H]1C[C@@]2(CCN1CC(O)c1ccc(F)c(F)c1)OCCc1cc(CC(F)F)sc12 (stereo partly shown) [Compound 605] | 100 to 500
19 | Cn1cc(CN2CCC3(CC2)OCCc2sc(C(F)(F)F)cc23)cn1 [Compound 1167] | 100 to 500
20 | COc1cc(OCC(N)=O)ccc1CN1CC[C@]2(C[C@@H]1C)OC[C@H](O)c1cc(Cl)sc12 [Compound 773] | < 100
21 | CCc1cc2c(s1)CCOC21CCN(Cc2cn(Cc3ccc[nH]c3=O)nn2)CC1 [Compound 1125] | 500 to 1000
22 | CCc1cc2c(s1)CCO[C@@]21CCN(Cc2ccc(N[C@H]3COC[C@@H]3O)nc2)[C@@H](C)C1 [Compound 212] | < 100
23 | CCc1cc2c(s1)CCOC21CCN(Cc2cn(CCc3noc(C)n3)nn2)CC1 [Compound 1109] | 500 to 1000
24 | C[C@H]1C[C@@]2(CCN1Cc1cnn(Cc3cnccn3)c1)OCCc1c2sc(C(F)(F)F)c1CO [Compound 902] | < 100
25 | CCc1cc2c(s1)CCO[C@@]21CCN(Cc2cn(CC(C)(C)OCCO)nn2)[C@@H](C)C1 [Compound 98] | 100 to 500

Row | SMILES | IC50 [nM]
26 | Cc1sc2c(c1C)[C@]1(CCN(Cc3cn(CCS(C)(=O)=O)nn3)[C@@H](C)C1)OCC2 [Compound 512] | 100 to 500
27 | CCc1cc2c(s1)CCO[C@@]21CCN(Cc2cn(CC3(S(C)(=O)=O)CCCC3)nn2)[C@@H](C)C1 [Compound 157] | < 100
28 | CCOCCOCC(O)Cn1cc(CN2CC[C@]3(C[C@@H]2C)OCCc2sc(CC)cc23)nn1 (stereo partly shown) [Compound 75] | < 100
29 | CCc1cc2c(s1)CCO[C@@]21CCN(C[C@H]2C[C@@H](NC(=O)[C@H]3C[C@@H]3C(F)F)C2)[C@@H](C)C1 [Compound 305] | < 100
30 | CCc1cc2c(s1)CCOC21CCN(Cc2ccc(C(=O)NC(C)(CC)CO)nc2)CC1 (stereo not shown) [Compound 1045] | < 100
31 | CCc1cc2c(s1)CCO[C@@]21CCN(C[C@H]2C[C@@H](NC(=O)CC3CS(=O)(=O)C3)C2)[C@@H](C)C1 [Compound 352] | < 100
32 | CNC(=O)Cn1cc(CN2CC[C@]3(C[C@@H]2C)OCCc2cc(Cl)sc23)cn1 [Compound 703] | < 100
33 | CCc1cc2c(s1)CCO[C@@]21CCN(CC(O)C(N)=O)[C@@H](C)C1 (stereo partly shown) [Compound 240] | 100 to 500
34 | C[C@H]1C[C@@]2(CCN1Cc1cnn(CC(O)C3(O)CCOCC3)c1)OC[C@@H](O)c1cc(C(F)(F)F)sc12 (stereo partly shown) [Compound 978] | < 100
35 | CCc1cc2c(s1)CCO[C@@]21CCN(CC)[C@@H](C)C1 [Compound 289] | 100 to 500
36 | CCc1cc2c(s1)CCO[C@@]21CCN(CC2CN(C(=O)c3cc(C(F)(F)F)n[nH]3)C2)[C@@H](C)C1 [Compound 462] | < 100
37 | CCc1cc2c(s1)CCO[C@@]21CCN(C[C@H]2C[C@@H](NC(=O)c3cc(CO)n[nH]3)C2)[C@@H](C)C1 [Compound 363] | < 100
38 | CCc1cc2c(s1)CCO[C@@]21CCN(Cc2cn(CC3(COC)CCOCC3)nn2)[C@@H](C)C1 [Compound 94] | 100 to 500
39 | CCc1cc2c(s1)CCO[C@@]21CCN(Cc2cnn(C)c2)[C@@H](C)C1 [Compound 267] | < 100
40 | CCc1cc2c(s1)[C@]1(CCN(Cc3cn(CCS(C)(=O)=O)nn3)[C@@H](C)C1)OCC2O (stereo partly drawn) [Compound 1038, (2′S,7R)-2-ethyl-2′-methyl-1′-[[1-(2-methylsulfonylethyl)triazol-4-yl]methyl]spiro[4,5-dihydrothieno[2,3-c]pyran-7,4′-piperidine]-4-ol] | < 100
41 | CCc1cc2c(s1)CCO[C@@]21CCN(Cc2cn(CC(O)CN3CCOCC3)nn2)[C@@H](C)C1 (stereo partly shown) [Compound 191] | < 100
42 | C[C@H]1C[C@@]2(CCN1Cc1cnccn1)OCCc1cc(Cl)sc12 [Compound 666] | 100 to 500
43 | C[C@H]1C[C@@]2(CCN1Cc1cnn(CC(=O)NC3CC3)c1)OCCc1c2sc(C(F)(F)F)c1CO [Compound 903] | < 100
44 | CCc1cc2c(s1)CCOC21CCN(Cc2ccc(C(=O)Nc3c[nH]c4ccccc34)nc2)CC1 [Compound 1044] | < 100
45 | CCc1cc2c(s1)CCO[C@@]21CCN(Cc2cn(CC3CN(C(C)=O)CCO3)nn2)[C@@H](C)C1 (stereo partly shown) [Compound 171] | 100 to 500
46 | C[C@H]1C[C@@]2(CCN1Cc1ncn3ccccc13)OCCc1c2sc(Cl)c1CO [Compound 740] | 500 to 1000
47 | C[C@H]1C[C@@]2(CCN1C[C@H]1C[C@@H](NS(=O)(=O)CC#N)C1)OCCc1cc(CC(F)F)sc12 [Compound 549, 1-cyano-N-((1R,3s)-3-(((2S,4R)-2′-(2,2-difluoroethyl)-2-methyl-4′,5′-dihydrospiro[piperidine-4,7′-thieno[2,3-c]pyran]-1-yl)methyl)cyclobutyl)methanesulfonamide] | < 100
48 | Cc1sc2c(c1C)[C@]1(CCN(Cc3cnn(C)c3)[C@@H](C)C1)OCC2 [Compound 519, (2′S,4R)-2,2′,3-trimethyl-1′-[(1-methylpyrazol-4-yl)methyl]spiro[6,7-dihydrothieno[3,2-c]pyran-4,4′-piperidine]] | < 100
49 | CCc1cc2c(s1)CCO[C@@]21CCN(C[C@H]2C[C@@H](NS(=O)(=O)C(C)C)C2)[C@@H](C)C1 [Compound 395] | < 100
